Data as given in patent US6685951B2, “Administration of dihydroergotamine as a sublingual spray or aerosol for the treatment of migraine” (R. T. Alamo Ventures I, Inc., priority 2001, dated 2004).

How the values were obtained:
[1] = Plasma DHE after sublingual administration of DHE 45 dosing solution in a monkey; assay type: in vivo, Cynomogolius monkey
Protocol: In this example the intrinsic permeability of DHE was shown after it was sublingually administered DHE in a Cynomogolius monkey.
The test DHE was obtained from as DHE 45® Injection, USP (manufactured by Novartis). Specific information follows.
(§1) Prior to dose administration, the animal was restrained and anesthetized with an appropriate amount of ketamine. Using a calibrated pipette, 0.5 mL of dosing solution was placed under the animal's tongue immediately after swabbing excess saliva with a gauze pad (the gauze pad will be discarded). The animal's head was restrained for approximately 5 minutes in such a manner to minimize any loss of the dose solution through the animal's mouth or down the animal's throat.
Blood (approximately 1 mL) was collected from each animal prior to dosing (predose) and at 0.1, 0.2, 0.3, 0.4, 0.5, 1, 2, 4, 8, and 12 hours postdose. Blood was collected via a femoral vein into sodium-heparinized tubes.
Blood was maintained on wet ice, in chilled Kryoracks, or at approximately 5° C. prior to centrifugation to obtain plasma. Centrifugation was begin within 30 minutes of collection. The blood samples were centrifuged at approximately 5° C. for approximately 10 minutes at approximately 4,000 rpm. Plasma was harvested and stored on dry ice or at approximately −70° C. prior to shipment.
The plasma was assayed for DHE using standard techniques.

migraine symptoms [2] = assay: Example 4: sublingual DHE vs nasal administration of DHE in migraine patients; assay type: in vivo; details: 2 mg sublingual vs 2 mg nasally administered
Protocol: This example compares the effect on migraine of nasal administration of DHE vs. the sublingual administration of the present invention.
This experiment utilizes three test groups of patients. All of the patients are suffering from migraines. One group receives a 2 mg dose of sublingual DHE and placebo intranasal spray, the second group receives a 2 mg nasally administered dose of a pharmaceutical formulation comprising DHE and a placebo sublingual tablet, the third group receives a placebo sublingual tablet and a placebo intranasal spray. Results are compared between the active sublingual test group and the active nasal test group.

[3] = Example 5: plasma uptake of DHE, sublingual tablet vs subcutaneous administration; assay type: in vivo, patient; details: plasma monitored 24 hours
Protocol: This example evaluates the uptake in sublingual vs. subcutaneous administration of DHE.
In this experiment one patient suffering from migraine pain is administered a migraine ameliorating dose of DHE as a sublingual tablet formulated as described in Example 1. The plasma concentration of DHE is monitored for a time of 24 hours after the administration. […] The rate and amount of DHE in the plasma is compared to that obtained by subcutaneous administration.

[4] = Mortality/moribundity checks and cageside observation after sublingual DHE; assay type: in vivo, Cynomogolius monkey; details: sublingual 0.5 mL of 1.0 mg/mL; throughout the study
Protocol: as §1
Mortality and moribundity checks were done twice daily (a.m. and p.m.). Cageside observation for general health and appearance was done once daily.

migraine symptoms [5] = assay: Example 2: sublingual DHE vs placebo in patients suffering from migraines; assay type: in vivo; details: 1 mg sublingual DHE
Protocol: This experiment utilizes two test groups of patients. All of the patients are suffering from migraines. One group receives a 1 mg dose of sublingual DHE, the other group receives a placebo. The DHE sublingual formulation is placed by the patients or medical professional under the tongue. The DHE sublingual formulation is allowed to dissolve fully. If the symptoms are not relieved within 20 to 40 minutes, a second dose is administered. Results are compared between the test group and the placebo group. […] The difference in amelioration of migraine symptoms are statistically significant.

migraine symptoms [6] = assay: Example 3: sublingual DHE tablet vs subcutaneous injection of DHE in migraine patients; assay type: in vivo; details: 1 mg sublingual tablet vs 1 mg subcutaneous injection
Protocol: This example compares the effect on migraine of subcutaneous injection vs. the sublingual administration of the present invention.
This experiment utilizes three test groups of patients. All of the patients are suffering from migraines. One group receives a 1 mg dose of sublingual DHE tablet and a placebo subcutaneous injection, the second group receives a 1 mg subcutaneous injection of a pharmaceutical formulation comprising DHE and a placebo sublingual tablet, and the third group receives a placebo subcutaneous injection and a placebo sublingual tablet. Results are compared between the active sublingual test group and the active subcutaneous test group.

[7] = oral forms of DHE; cited from earlier work
[8] = Example 6: two-way crossover, DHE tablet under the tongue vs orally with water; assay type: in vivo, healthy normal volunteers; details: tablet under the tongue vs orally with about 240 ml water; blood over 24 hour
Protocol: Each volunteer is administered DHE sublingual tablet manufactured as defined in this patent. In one treatment the tablet is administered under the tongue and in the crossover treatment the subject is administered the tablet orally with about 240 ml of water. Blood samples are taken serially over a 24 hour duration post administration and assayed for unchanged DHE and the principle 8-hydroxy DHE metabolite.

migraine = details: in vivo; cited from earlier work

Row | SMILES | half-life ([1]; cynomolgus, monkey, in vivo) [min] | Tmax ([1]; cynomolgus, monkey, in vivo, 0.5 mg, plasma, sublingual 0.5 mL of 1.0 mg/mL, read-out: Tmax (time point of maximum concentration) (converted)) [min] | detection of DHE in the blood plasma after sublingual administration ([1]; sublingual) | amelioration of migraine symptoms, sublingual vs nasal group (migraine symptoms [2]) | time to maximum plasma concentration of DHE [3] [min] | observations for general health and appearance, mortality and moribundity [4] | amelioration of migraine symptoms compared to placebo control group (migraine symptoms [5]) | amelioration of migraine symptoms, sublingual vs subcutaneous group (migraine symptoms [6]) | active unchanged drug that reaches the blood stream [7] | levels of active DHE, sublingual higher than oral [8] | efficacy in the treatment of migraine (migraine)
1 | CN1C[C@H](C(=O)N[C@]2(C)O[C@@]3(O)[C@@H]4CCCN4C(=O)[C@H](Cc4ccccc4)N3C2=O)C[C@@H]2c3cccc4[nH]cc(c34)C[C@H]21 [DHE, Dihydroergotamine] | 132 | 5 | rapid detection of DHE in the blood plasma | equivalent amelioration of migraine symptoms | 30 to 60 | No unusual observations | greater amelioration of migraine symptoms | equivalent amelioration of migraine symptoms | 2-10% | at least 200% | –
2 | CN(C)CCc1c[nH]c2ccc(Cn3cncn3)cc12 [rizatriptan] | – | – | – | – | – | – | – | – | – | – | 60-70%
